Laboratory results reported in patent US20150366962A1 (priority 2014, published 2015).

Legend:
[1] = test system: human monocyte-derived DCs; assay: Cytokine induction of human monocyte-derived dendritic cells (Luminex); type: cell-based; details: 10 μM, 18 h
Protocol: (A) Upregulation of antigen uptake by 1Z105. BMDCs prepared from C57BL/6 mice were incubated with 10 μM 1Z105 or MPLA overnight. Antigen, Alexa Fluor 488-conjugated ovalbumin (OVA-488), was added to the culture for the last 30 min of incubation. The cells were washed and stained for CD11c. OVA-associated dendritic cells in the CD11c^hi population were evaluated by flow cytometry. Cells incubated at 4° C. served as a negative control. (B and C) Enhancement of expression of costimulatory molecules by 1Z105.WT (B) or Tlr4^−/− (C) BMDCs were incubated with 1Z105 (10 or 2 μM) or MPLA (0.04 μg/ml) overnight, and expression of CD40 and CD86 was assessed by flow cytometric assay. (D) 1Z105 promotes antigen cross-presentation. […] OT-1 T-cell proliferation was monitored by flow-cytometric assay. […] Cytokine release of IL-1β, IL-6, IL-8, IL-12p70, and TNF-α was determined by Luminex bead assay. […]
Human primary dendritic cells (DCs) were generated. […] The supernatants were stored at −20° C. for later quantification of released cytokines. Quantification of IL-1β, IL-6, IL-8, IL-12p70, and tumor necrosis factor alpha (TNF-α) released in supernatants was performed using the Milliplex Multiplex Assays (Luminex; Millipore, Billerica, Mass.) according to the manufacturer's instructions. Data were analyzed using the Milliplex Analyst software (Millipore).

OVA = OVA immunization: splenocyte IFN-γ ELISA and ELISpot; type: in vivo, C57BL/6 mice
Protocol: AddaVax and vehicle were used as controls. The sera were collected on day 35, and the serum IgG1 (A) and IgG2c (B) levels were tested. (C) Splenocytes were incubated with OVA (100 μg/ml) for 3 days, and IFN-γ levels in the culture supernatants were determined by ELISA. Data were pooled from three experiments showing similar trends. (D and E) Myd88^−/−, Tri^flps/lps, or wild-type mice (n=8/group) were i.m. immunized with ovalbumin mixed with the indicated adjuvant or vehicle in a 50-μl volume on days 0 and 14. On day 35, splenocytes were incubated with OVA MHC class I peptides (OVA257-264) (D) or class II peptides (OVA323-339) (E) overnight, and IFN-γ-producing cells were detected by ELISpot assay. The data shown are pooled from 2 or 3 independent experiments showing similar trends. *, P 0.05 compared to no adjuvant (A to C) or the WT (D and E) by one-way ANOVA with Dunnett's post hoc testing.
Vehicle (10% DMSO in saline) and AddaVax (1:1 ratio with antigen in saline) were used as controls. Sera were collected on days 0, 7, 14, 21, 28, and 35. Mice were sacrificed on day 35, and the spleens were harvested. Approximately 2.5×10^6/ml spleen cells was dispersed into round-bottom microtiter plates in triplicate in a total volume of 200 μl complete RPMI 1640 and restimulated with either 100 μg/ml OVA or medium alone. The cultures were then incubated at 37° C., 5% CO2, and the supernatants were harvested after 72 h. The levels of gamma interferon (IFN-γ) in the culture supernatants were measured by ELISA (BD Bioscience, San Jose, Calif.) according to the manufacturer's instructions. In parallel, splenocytes were stimulated with 10 μg/ml OVA class I (OVA257-264) or class II (OVA323-339) peptide on anti-IFN-γ antibody-coated enzyme-linked immunospot (ELISpot) plates for 18 h. The results are reported as numbers of IFN-spot-forming cells (SFC) per million cells as described below.

Structure (SMILES) | proinflammatory cytokine release (IL-1β, IL-6, IL-8, IL-12p70, TNF-α) [1] | dependence of increased antigen-specific T cell frequencies on MyD88 and TRIF (OVA; Myd88-/- and TrifLps2/Lps2 versus wild-type mice) | frequencies of IFN-γ-releasing T cells specific for OVA class I peptide (ELISpot) (OVA; OVA257-264, day 35 splenocytes) | frequencies of IFN-γ-releasing T cells specific for OVA class II peptide (ELISpot) (OVA; OVA323-339, day 35 splenocytes) | OVA-specific IFN-γ release by T cells restimulated ex vivo (OVA; splenocytes, OVA 100 μg/ml, 3 days, ELISA)
Cn1c2ccccc2c2nc(SCC(=O)NC3CCCCC3)n(-c3ccccc3)c(=O)c21 [Compound 1Z105] | activated human monocyte-derived DCs, resulting in proinflammatory cytokine release |  |  |  | 
CCCCCCCCC=CCCCCCCCC(=O)OCC(COP(=O)(O)OCCNC(=O)c1ccc(Cn2c(=O)[nH]c3c(N)nc(OCCOC)nc32)cc1)OC(=O)CCCCCCCC=CCCCCCCCC (centres unmarked) [Compound 1V270] |  | partially dependent upon the MyD88 and TRIF pathways | increased frequencies | increased frequencies | promoted OVA-specific IFN-γ release
